Where two headings read alike, the source gives them in different places.
What was measured:
[1] = tested on: cryo-preserved hepatocytes; assay: Hepatocyte stability assay, mouse; format: in vitro ADME; conditions: mouse, hepatocytes
How it was run: (§1)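 Cryopreserved hepatocytes at 0.5×10^6 cells/mL in Leibovitz buffer, 37 °C, with 10 μM compound (0.1% DMSO), duplicate. Samples at 0-60 min, acetonitrile quench, LC-MS/MS; intrinsic clearance and half-life from ln % remaining versus time, with buffer-only incubations as control.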

[2] = Hepatocyte stability assay, mouse; format: in vitro ADME; conditions: mouse, hepatocytes, T½
How it was run: as §1

[3] = tested on: IL-6; assay: THP-1 AlphaLISA IL-6 cytokine assay (differentiated THP-1 cells); format: cell-based; conditions: Homo sapiens
How it was run: (§2)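 PMA-differentiated THP-1 cells were preincubated 30 min with compound, stimulated with LPS for 24 h, then nigericin for 1 h, all at 37 °C. Supernatant IL-1β and IL-6 were quantified by AlphaLISA. % inhibition is normalised to +LPS and −LPS controls per cytokine.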

[4] = tested on: cryo-preserved hepatocytes; assay: Hepatocyte stability assay, human; format: in vitro ADME; conditions: human, hepatocytes
How it was run: as §1

[5] = Hepatocyte stability assay, human; format: in vitro ADME; conditions: human, hepatocytes, T½
How it was run: as §1

[6] = tested on: IL-1β; assay: THP-1 AlphaLISA IL-1β cytokine assay (differentiated THP-1 cells); format: cell-based; conditions: Homo sapiens
How it was run: as §2

[7] = tested on: NRF2 (nuclear factor erythroid 2-related factor 2); assay: NRF2 +/-GSH activation assay (DiscoverX PathHunter NRF2 translocation kit, U2OS cells); format: cell-based; conditions: Homo sapiens
[8] = tested on: plasma protein; assay: Plasma protein binding (rapid equilibrium dialysis), human; format: in vitro ADME; conditions: Human plasma, 5 μM compound, 4 hours
Description: (§3) Equilibrium dialysis is an accurate and reliable method for determining protein binding affinities to chemical or biological substances of low molecular weight. The Rapid Equilibrium Dialysis (RED) plate is specifically designed and extensively validated for plasma protein binding assays. It is also designed for minimal non-specific binding (Thermo Fisher).
(§4) • Phosphate buffered saline (PBS) pH 7.4 was prepared using PBS tablets as per the manufacturer's instructions. • Compound and marker stocks were prepared at 10 mM in DMSO and further diluted to 100× the assay concentration in DMSO. • Plasma was thawed on the day of the assay and centrifuged. The supernatant was transferred to a fresh vessel and the pH adjusted to pH 7.4 using lactic acid or sodium hydroxide.
(§5) Pre-prepared 100× assay compound stocks were spiked 1:100 into pH adjusted plasma. 200 μL of spiked plasma was added to the red compartment of the rapid equilibrium dialysis (RED) device for each replicate. 350 μL of PBS was added to the buffer compartment. The plate was sealed with a breathable lid and shaken on an orbital shaker in a 37° C. incubator, 5% CO2 for 4 hours.
(§6) Standard final incubation conditions were 5 μM compound in plasma containing 1% (v/v) DMSO.
(§7) A sample of the plasma/compound mixture was taken, mixed with an equal volume of PBS and quenched 1:3 with ice-cold acetonitrile containing internal standard. Methanol was also added to matrix match with calibration curve samples. This was the t=0 sample.
(§8) Post-incubation, plasma and buffer were sampled from their respective RED device compartments into separate tubes containing an equal volume of the alternate matrix for each replicate. Samples were quenched 1:3 with ice-cold acetonitrile containing internal standard. Methanol was also added to matrix match with calibration curve samples.
Calibration curves were prepared in methanol and spiked such that the matrix was equivalent to the assay samples.
Quenched samples were mixed thoroughly and protein precipitated at −20° C. for a minimum of 12 hours. Samples were then centrifuged at 4° C. Supernatants were transferred to a fresh 96 well plate for analysis.
Positive control markers were included.
(§9) Fraction unbound, percent bound and percent recovery were the standard assay parameters reported. They were calculated using the following equations: […]
An example compound of formula (I) was tested in this assay. Reference Example 2 (RE2) (which corresponds to Example 49 in WO2020/222011 (Sitryx Therapeutics, 2020)) was used as a comparator compound.

[9] = tested on: plasma protein; assay: Plasma protein binding (rapid equilibrium dialysis), mouse; format: in vitro ADME; conditions: 5 μM compound, 4 hours
Description: as §3, §4, §5, §6, §7, §8
Calibration curves were prepared in methanol and spiked such that the matrix was equivalent to the assay samples. […]
as §9

[10] = THP-1, differentiated THP-1 cells, LPS 24 hr then Nigericin 1 hour, read-out: IL-6 (IC50)
[11] = THP-1, differentiated THP-1 cells, LPS 24 hr then Nigericin 1 hour, read-out: IL-1β (IC50)
[12] = U2OS, +GSH, normalised to dimethyl fumarate high control, read-out: NRF2 activation Emax, +GSH
[13] = U2OS, −GSH, normalised to dimethyl fumarate high control, read-out: NRF2 activation Emax, −GSH
[14] = +GSH, U2OS PathHunter cells, 6 hours, read-out: NRF2 activation EC50, +GSH
[15] = −GSH, U2OS PathHunter cells, 6 hours, read-out: NRF2 activation EC50, −GSH
[16] = U2OS, 6 h, read-out: NRF2 activation EC50, +GSH
[17] = U2OS, 6 h, read-out: NRF2 activation EC50, −GSH
[18] = U2OS, read-out: NRF2 activation Emax, +GSH
[19] = U2OS, read-out: NRF2 activation Emax, −GSH

| SMILES | Clint [1] [μL min^−1 10^−6 cells] | half-life at 10 μM [2] [min] | IC50 [3, 10] [µM] | Clint [4] [μL min^−1 10^−6 cells] | half-life at 10 μM [5] [min] | IC50 [6, 11] [µM] | IC50 ([6]; THP-1, differentiated THP-1 cells, footnote a: data from repeated experiments, read-out: IL-1β (IC50), data from repeated experiments) [µM] | Emax [7, 12] [%] | Emax [7, 13] [%] | EC50 [7, 14] [µM] | EC50 [7, 15] [µM] | IC50 ([3]; THP-1, read-out: IL-6 (IC50)) [µM] | IC50 ([6]; THP-1, read-out: IL-1β (IC50)) [µM] | EC50 [7, 16] [µM] | EC50 [7, 17] [µM] | Emax [7, 18] [%] | Emax [7, 19] [%] | Binding (%) [8] [%] | Binding (%) [9] [%] |
| --- | --- | --- | --- | --- | --- | --- | --- | --- | --- | --- | --- | --- | --- | --- | --- | --- | --- | --- | --- |
| C=C(CC(=O)NC1(c2ccc(C(F)(F)F)cc2)CCC1)C(=O)O [Example 5, 2-methylene-4-oxo-4-((1-(4-(trifluoromethyl)phenyl)cyclobutyl)amino)butanoic acid] | 3 | 450 | > 56.2 | <3 | > 460 | 3.7 | 5.6 | 0 | 17 | > 100 | > 100 | – | – | – | – | – | – | – | – |
| C=C(CC(=O)NC1(c2ccc(C(F)(F)F)cc2)CCC1)C(=O)OC1CCN(S(C)(=O)=O)CC1 [Example 9, 1-(methylsulfonyl)piperidin-4-yl 2-methylene-4-oxo-4-((1-(4-(trifluoromethyl)phenyl)cyclobutyl)amino)butanoate] | 619 | 3.5 | 7.27 | 116 | 10 | 8.2 | – | 55 | 109 | > 100 | 19.2 | – | – | – | – | – | – | – | – |
| C=C(CC(=O)N[C@@H](C)c1ccc(C(F)(F)F)cc1)C(=O)OC1CCN(S(C)(=O)=O)CC1 [Example 22, 1-(methylsulfonyl)piperidin-4-yl (S)-2-methylene-4-oxo-4-((1-(4-(trifluoromethyl)phenyl)ethyl)amino)butanoate] | 99 | 13 | 3.6 | 49 | 37 | 7.1 | – | 8 | 3 | > 100 | > 100 | – | – | – | – | – | – | – | – |
| C=C(CC(=O)N[C@@H](C)c1ccc(C(F)(F)F)cc1)C(=O)OC1CCN(C)CC1 [Example 24, 1-methylpiperidin-4-yl (S)-2-methylene-4-oxo-4-((1-(4-(trifluoromethyl)phenyl)ethyl)amino)butanoate] | 199 | 8 | 4 | 23 | 65 | 4.7 | – | 30 | 78 | > 100 | 9.05 | – | – | – | – | – | – | – | – |
| C=C(CC(=O)N[C@@H](C)c1ccc(C(F)(F)F)cc1)C(=O)OC1CS(=O)(=O)C1 [Example 27, 1,1-dioxidothietan-3-yl (S)-2-methylene-4-oxo-4-((1-(4-(trifluoromethyl)phenyl)ethyl)amino)butanoate] | 215 | 6 | 1.4 | 126 | 12 | 3.3 | – | 10 | 84 | > 100 | 6.3 | – | – | – | – | – | – | – | – |
| C=C(CC(=O)N[C@@H](C)c1ccc(C(F)(F)F)cc1)C(=O)OCCN1CCOCC1 [Example 29] | 130 | 13 | 6.7 | 39 | 38 | 10.3 | – | 22 | 86 | > 100 | 22.7 | – | – | – | – | – | – | – | – |
| C=C(CC(=O)N[C@@H](C)c1ccc(C(F)(F)F)cn1)C(=O)OC1CCN(S(C)(=O)=O)CC1 [Example 31, 1-(methylsulfonyl)piperidin-4-yl (S)-2-methylene-4-oxo-4-((1-(5-(trifluoromethyl)pyridin-2-yl)ethyl)amino)butanoate] | 34 | 35 | – | 11 | 138 | – | – | – | – | – | – | 13.3 | 2.4 | > 100 | 43.3 | 27 | 82 | – | – |
| C=C(CC(=O)N[C@@H](C)c1ccc(C(F)(F)F)cn1)C(=O)OCCO [Example 34, 2-hydroxyethyl (S)-2-methylene-4-oxo-4-((1-(5-(trifluoromethyl)pyridin-2-yl)ethyl)amino)butanoate] | 24 | 71 | 25.8 | 11 | 137 | 14.8 | – | 16 | 81 | > 100 | 5.7 | – | – | – | – | – | – | – | – |
| C=C(CC(=O)N[C@@H](C)c1ccc(C(F)(F)F)cn1)C(=O)OC1CN(S(C)(=O)=O)C1 [Example 37, 1-(methylsulfonyl)azetidin-3-yl (S)-2-methylene-4-oxo-4-((1-(5-(trifluoromethyl)pyridin-2-yl)ethyl)amino)butanoate] | 104 | 12 | 7.29 | 50 | 25 | 1.7 | – | 11 | 90 | > 100 | 15.8 | – | – | – | – | – | – | – | – |
| C/C=C(\CC(=O)N[C@@H](C)c1ccc(C(F)(F)F)cc1)C(=O)O [Example 42, (S,E)-2-(2-oxo-2-((1-(4-(trifluoromethyl)phenyl)ethyl)amino)ethyl)but-2-enoic acid] | 3 | 323 | – | <3 | > 460 | – | – | – | – | – | – | > 68.1 | 2.3 | > 100 | > 100 | 3 | 8 | – | – |
| C=C(CC(=O)N[C@@H](C)c1ccc(C(F)(F)F)cc1)c1nnn[nH]1 [Example 57, (S)-3-(1H-tetrazol-5-yl)-N-(1-(4-(trifluoromethyl)phenyl)ethyl)but-3-enamide] | <3 | > 460 | > 10 | <3 | > 460 | 1.9 | – | 48.5 | 55 | > 100 | 46.8 | – | – | – | – | – | – | – | – |
| C=C(CC(=O)OCCCCCCCC)C(=O)OCC(=O)O [RE2, reference compound] | – | – | – | – | – | – | – | – | – | – | – | – | – | – | – | – | – | >99 | >99 |

Reference: patent publication US20240245691A1 (Sitryx Therapeutics Limited, priority 2021, published 2024)
